Results: PubChem BioAssay AID1963977 (Molecular Pharmacology Branch, DTP, NCI, 2024)
Each block holds one compound with its values, some of them ahead of it.

Test system: 624824-186-R-J3-PDC multicell spheroids, viability
Experiment: Anticancer human tumor 624824-186-R-J3-PDC patient-derived colon adenocarcinoma cell line growth inhibition [PI3K]
Settings: for IC50: curve of first compound; for viability, T/C: stronger effect = lower value
In short: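 Targeted small molecules plus PI3K inhibitors, half-log dose series from Cmax (default top 10 microM), were applied to heterotypic spheroids of cancer cells with HUVEC and MSCs. Viability indicated growth inhibition.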
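Note: spheroids exposed to agents for seven days before luminescence read.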
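Throughout, for viability, T/C: luminescent signal used as a stand-in for spheroid viability; percent viability relative to DMSO vehicle control wells taken as 100%.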

IC50 (second compound 0.00316 µM): 0.854 µM
IC50 (second compound 0.01 µM): 0.582 µM
IC50 (second compound 0.0316 µM): 0.189 µM
IC50 (second compound 0.1 µM): 0.0474 µM
IC50 (second compound 0.316 µM): < 0.00949 µM
IC50 (second compound 1 µM): < 0.00949 µM
SMILES: Cn1cnc2c(F)c(Nc3ccc(Br)cc3Cl)c(C(=O)NOCCO)cc21 + COc1c(OCCCN2CCOCC2)ccc2c3n(c(=NC(=O)c4cnc(N)nc4)nc12)CCN3
viability, T/C (second compound 0.00316 µM, first compound 0.00949 µM): 102%
viability, T/C (second compound 0.00316 µM, first compound 0.03 µM): 95.9%
viability, T/C (second compound 0.00316 µM, first compound 0.0949 µM): 102%
viability, T/C (second compound 0.00316 µM, first compound 0.3 µM): 87.8%
viability, T/C (second compound 0.00316 µM, first compound 0.949 µM): 46.3%
viability, T/C (second compound 0.00316 µM, first compound 3 µM): 31.4%
viability, T/C (second compound 0.01 µM, first compound 0.00949 µM): 108%
viability, T/C (second compound 0.01 µM, first compound 0.03 µM): 88.4%
viability, T/C (second compound 0.01 µM, first compound 0.0949 µM): 86.4%
viability, T/C (second compound 0.01 µM, first compound 0.3 µM): 65.5%
viability, T/C (second compound 0.01 µM, first compound 0.949 µM): 37.1%
viability, T/C (second compound 0.01 µM, first compound 3 µM): 18.4%
viability, T/C (second compound 0.0316 µM, first compound 0.00949 µM): 88.9%
viability, T/C (second compound 0.0316 µM, first compound 0.03 µM): 89.6%
viability, T/C (second compound 0.0316 µM, first compound 0.0949 µM): 67.4%
viability, T/C (second compound 0.0316 µM, first compound 0.3 µM): 37.7%
viability, T/C (second compound 0.0316 µM, first compound 0.949 µM): 18.2%
viability, T/C (second compound 0.0316 µM, first compound 3 µM): 11.2%
viability, T/C (second compound 0.1 µM, first compound 0.00949 µM): 75.2%
viability, T/C (second compound 0.1 µM, first compound 0.03 µM): 57.9%
viability, T/C (second compound 0.1 µM, first compound 0.0949 µM): 38.5%
viability, T/C (second compound 0.1 µM, first compound 0.3 µM): 21%
viability, T/C (second compound 0.1 µM, first compound 0.949 µM): 13.5%
viability, T/C (second compound 0.1 µM, first compound 3 µM): 5.3%
viability, T/C (second compound 0.316 µM, first compound 0.00949 µM): 43.3%
viability, T/C (second compound 0.316 µM, first compound 0.03 µM): 28.9%
viability, T/C (second compound 0.316 µM, first compound 0.0949 µM): 17.9%
viability, T/C (second compound 0.316 µM, first compound 0.3 µM): 9.77%
viability, T/C (second compound 0.316 µM, first compound 0.949 µM): 4.7%
viability, T/C (second compound 0.316 µM, first compound 3 µM): 1.14%
viability, T/C (second compound 1 µM, first compound 0.00949 µM): 22.7%
viability, T/C (second compound 1 µM, first compound 0.03 µM): 16%
viability, T/C (second compound 1 µM, first compound 0.0949 µM): 10.1%
viability, T/C (second compound 1 µM, first compound 0.3 µM): 8.08%
viability, T/C (second compound 1 µM, first compound 0.949 µM): 3.21%
viability, T/C (second compound 1 µM, first compound 3 µM): 1.3%

IC50 (second compound 0.00316 µM): > 10 µM
IC50 (second compound 0.01 µM): > 10 µM
IC50 (second compound 0.0316 µM): > 10 µM
IC50 (second compound 0.1 µM): > 10 µM
IC50 (second compound 0.316 µM): 0.493 µM
IC50 (second compound 1 µM): < 0.0316 µM
SMILES: C#Cc1c(F)ccc2cc(O)cc(-c3ncc4c(N5CC6CCC(C5)N6)nc(OCC56CCCN5CC(F)C6)nc4c3F)c12 (centres undefined) + COc1c(OCCCN2CCOCC2)ccc2c3n(c(=NC(=O)c4cnc(N)nc4)nc12)CCN3
viability, T/C (second compound 0.00316 µM, first compound 0.0316 µM): 104%
viability, T/C (second compound 0.00316 µM, first compound 0.1 µM): 116%
viability, T/C (second compound 0.00316 µM, first compound 0.316 µM): 114%
viability, T/C (second compound 0.00316 µM, first compound 1 µM): 103%
viability, T/C (second compound 0.00316 µM, first compound 3.16 µM): 112%
viability, T/C (second compound 0.00316 µM, first compound 10 µM): 111%
viability, T/C (second compound 0.01 µM, first compound 0.0316 µM): 103%
viability, T/C (second compound 0.01 µM, first compound 0.1 µM): 101%
viability, T/C (second compound 0.01 µM, first compound 0.316 µM): 102%
viability, T/C (second compound 0.01 µM, first compound 1 µM): 114%
viability, T/C (second compound 0.01 µM, first compound 3.16 µM): 103%
viability, T/C (second compound 0.01 µM, first compound 10 µM): 103%
viability, T/C (second compound 0.0316 µM, first compound 0.0316 µM): 92%
viability, T/C (second compound 0.0316 µM, first compound 0.1 µM): 95.5%
viability, T/C (second compound 0.0316 µM, first compound 0.316 µM): 103%
viability, T/C (second compound 0.0316 µM, first compound 1 µM): 93%
viability, T/C (second compound 0.0316 µM, first compound 3.16 µM): 93%
viability, T/C (second compound 0.0316 µM, first compound 10 µM): 90.9%
viability, T/C (second compound 0.1 µM, first compound 0.0316 µM): 87.1%
viability, T/C (second compound 0.1 µM, first compound 0.1 µM): 73.7%
viability, T/C (second compound 0.1 µM, first compound 0.316 µM): 78.5%
viability, T/C (second compound 0.1 µM, first compound 1 µM): 78.2%
viability, T/C (second compound 0.1 µM, first compound 3.16 µM): 73.6%
viability, T/C (second compound 0.1 µM, first compound 10 µM): 63.5%
viability, T/C (second compound 0.316 µM, first compound 0.0316 µM): 54.7%
viability, T/C (second compound 0.316 µM, first compound 0.1 µM): 49.9%
viability, T/C (second compound 0.316 µM, first compound 0.316 µM): 54.1%
viability, T/C (second compound 0.316 µM, first compound 1 µM): 46.4%
viability, T/C (second compound 0.316 µM, first compound 3.16 µM): 44.8%
viability, T/C (second compound 0.316 µM, first compound 10 µM): 37.6%
viability, T/C (second compound 1 µM, first compound 0.0316 µM): 28.4%
viability, T/C (second compound 1 µM, first compound 0.1 µM): 27.7%
viability, T/C (second compound 1 µM, first compound 0.316 µM): 26.9%
viability, T/C (second compound 1 µM, first compound 1 µM): 23.5%
viability, T/C (second compound 1 µM, first compound 3.16 µM): 24.6%
viability, T/C (second compound 1 µM, first compound 10 µM): 17.1%
